Data set [1] has as its system platelet function. The following applies: in vivo; cited from earlier work.
Data set [2] concerns platelets in platelet-rich plasma (PRP). In words: Transmission light aggregometry of platelets in PRP with antiplatelet agents. The data set is classed as cell-based, human. The method, then:
Plasma samples with platelet or FDPDs or combination of both are loaded into cuvettes and placed into the aggregometry chambers. The chambers warm the sample and provide constant stirring. The initiation of aggregation can be done by multiple types of […] agents not limited to thrombin, ADP, collagen and any agent know to stimulate platelet aggregation. […] The instrument begins the assay by first recording the light transmission previous to stimulation for 2 minutes. The stimulant of interest is then introduced by the technician and the change in light transmission is recorded overtime. The increase in light transmission corresponds to increase in platelet aggregation.

In data set [3] the test system is platelet rich plasma. In words: T-TAS AR chip (collagen and tissue factor) occlusion, platelet rich plasma. It counts as cell-based, human. As to conditions: for occlusion time of ADP stimulated PRP: ADP 2 μM, cangrelor 1 μM (n=4) or ticagrelor 500 ng/mL (n=5). The method, then:
The effect of cangrelor on platelet occlusion under shear was evaluated by T-TAS®.
Evaluation by T-TAS® using an AR chip. AR chips are characterized by a single channel containing collagen and tissue factor; they can be used to analyze clotting and platelet function.

Data set [4] has as its system platelet rich plasma. The description is as above. It counts as cell-based, human.
Data set [5] relates to thrombin generation. In words: Thrombin generation assay (TGA). The data set is classed as biochemical, human. As to conditions: PPP from patients taking baby aspirin daily; absence of FDPDs.
Data set [6] relates to whole blood. The data set can be described thus: T-TAS PL chip (collagen only) thrombus formation, whole blood. The data set is classed as cell-based, human. The following applies: 100 and 500 μM aspirin. An excerpt:
Platelets will aggregate with collagen and arachidonic acid stimulation. […] The PL chip system on the T-TAS® was used to emulate in vitro platelet binding and aggregation due to the exposure of collagen in the vasculature under shear conditions.
PL chips are run similarly to AR chips but this chip is only coated with collagen alone.

For data set [7] the following is noted: same 500 mg dose orally; cited from earlier work.
Data set [8] relates to pooled normal plasma. The data set can be described thus: Activated clotting time (ACT) in pooled normal plasma with heparin and protamine. It counts as biochemical, human. As to conditions: heparin titration. As for the experimental part:
This experiment assessed how clinical proportions of Heparin and Protamine affect FDPD function. FDPDs were prepared according to the procedure in Example 15. An Activating Clotting Time (ACT) assay was performed to measure time to clot and TGA was performed to measure thrombin generation. An initial Heparin titration run was performed using ACT to find the minimum Heparin dose needed to reach abnormal clot time.
Activated clotting time was measured using pooled normal plasma with heparin (H) and protamine (P) as labeled on the x-axis; ½ P, P, and 3/2 P represent protamine doses of 4, 8, and 12 μg/ml, respectively. FDPDs, (referred to as “Tsomes” in FIG. 40) were added at 10, 25 or 50 K/μl. […] “K” in the legend stands for 10^3 FDPDS. All samples were run in duplicate. N=2. The experiment was repeated on separate days to improve statistical relevance.

For data set [9], the system named is whole blood. In words: T-TAS AR chip occlusion, whole blood. The data set is classed as cell-based, human. As to conditions: 6 μM eptifibatide. An excerpt:
The effect of FDPDs on shortening clotting times while in the presence of eptifibatide was also studied. The ability of FDPDs to recover occlusion times was studied on the T-TAS® system. The T-TAS® system measures occlusion time under shear forces with collagen and thromboplastin stimulation. The whole blood profile of occlusion and AUC on the AR T-TAS® chip lengthened and decreased, respectively, with eptifibatide. Eptifibatide extended the occlusion time of whole blood on the T-TAS® AR Chip in a dose-dependent manner. In this experiment, whole blood occluded at 8 minutes, and the occlusion time was extended to 16 minutes with 6 μM eptifibatide (FIG. 9). FDPDs reversed the inhibitory effect of eptifibatide on thrombus formation. Eptifibatide inhibition of whole blood occlusion on the T-TAS® AR Chip was reversed by the addition of FDPDs at approximately 200,000/μL (N=3). When FDPDs (approximately 200 k/μL) were added to the sample of whole blood inhibited with eptifibatide, the time to occlusion decreased to ‘normal’ at 9 minutes (FIG. 10).
Evaluation by T-TAS® using an AR chip. […]
Occlusion time was measured on the Total […] formation Analysis System (T-TAS®) 01 using AR chips (Collagen and Tissue FactorF stimulant). […] FDPDS were rehydrated, counted (Beckman Coulter AcT Diff 2 Cell Counter), and added to whole blood at the indicated final concentration. […]

The mark [10] stands for this setting: cangrelor 1 μM combined with ADP 10 μM.

Entries after “also recorded” stand apart in the source; their conditions may differ. Where a SMILES comes first, the peptide text is derived from it. Bridges are numbered along the chain shown (N, C = ends). [ ]: non-standard residue; d: D form. hArg = N=C(N)NCCCC[C@H](N)C(=O)O; Mpa = O=C(O)CCS Some results are limits rather than exact numbers.

For `COC(=O)[C@H](c1ccccc1Cl)N1CCc2sccc2C1` [clopidogrel], the “time until platelet function is returned after stopping infusion” value in [1] was “approximately 1 hour”.

With `CSCCNc1nc(SCCC(F)(F)F)nc2c1ncn2[C@@H]1O[C@H](COP(=O)(O)OP(=O)(O)C(Cl)(Cl)P(=O)(O)O)[C@@H](O)[C@H]1O` [cangrelor], the “ADP-induced platelet aggregation in PRP” value in data set [2] (10 μM ADP, cangrelor 0.5 μM-3.5 μM) is reported as “complete inhibition”. The “occlusion time of PRP” value in [3] (100 ng/mL cangrelor and ADP) was 26 min. Further, the “occlusion time of ADP stimulated PRP” value in [3] was 28.0 ± 3.0 min. Further, in [3] (setting [10]), the “area under the curve (AUC) of PRP” value was “dropped close to zero”; the “platelet adhesion and occlusion of PRP” value is listed as “essentially eliminated; also recorded: inhibited occlusion essentially completely”. Moreover, in data set [3] (cangrelor alone 1 μM), the “area under the curve (AUC) of PRP” value is reported as “little effect” and the “occlusion / occlusion time of PRP” value is “did not exhibit inhibition; also recorded: little effect”.

With `CC(=O)Oc1ccccc1C(=O)O` [aspirin, acetylsalicylic acid], in data set [2] (AA 500 ug/mL, aspirin 100-400 μM), the “arachidonic acid induced platelet aggregation in PRP” value is listed as “eliminated arachidonic acid induced platelet aggregation entirely”. Moreover, the “collagen stimulated platelet aggregation in PRP” value in [2] (collagen 10 ug/mL, aspirin 100-400 μM) is listed as “partially inhibited”. In data set [4] (PRP 30K/μL), the “occlusion time of PRP” value is more than 30 min. Further, the “occlusion of PRP taken from an aspirin patient” value in [4] (ex vivo, subject on 81 mg/day of aspirin) was “failed to occlude”. For the same compound, the peak thrombin result in data set [5] is “about 45 nM”. In data set [6], the “platelet binding and aggregation on collagen under shear” value is “largely limited”. Also, the peak concentration in data set [7] was 44 µM.

Take heparin: in data set [8], the “minimum Heparin dose needed to reach abnormal clot formation” value is 0.8 U/mL.

`CCCSc1nc(N[C@@H]2C[C@H]2c2ccc(F)c(F)c2)c2nnn([C@@H]3C[C@H](OCCO)[C@@H](O)[C@H]3O)c2n1` [ticagrelor]: the “time until platelet function can return after the last dosage” value in data set [1] is given as “approximately 72 hours”. In addition, the “occlusion time of ADP stimulated PRP” value in [3] was 28.0 ± 3.0 min.

Turning to `N=C(N)NCCCC[C@@H]1NC(=O)CCSSC[C@@H](C(N)=O)NC(=O)[C@@H]2CCCN2C(=O)[C@H](Cc2c[nH]c3ccccc23)NC(=O)[C@H](CC(=O)O)NC(=O)CNC1=O` [eptifibatide] ([Mpa][hArg]GDWPC-NH2; disulfide 1-7), in data set [2] (collagen 10 μg/mL, all eptifibatide concentrations tested), the “collagen-induced platelet aggregation in PRP” value is “completely inhibited”. The “time for bleeding time to return to normal after drug stoppage” value in data set [1] is not above 1 h. In addition, the “occlusion time of PRP” value in [4] (9 μM eptifibatide) is “over 30 minutes”. Further, in data set [9], the “occlusion time of whole blood” value turned out to be 16 min.

For the compound `CCCCS(=O)(=O)N[C@@H](Cc1ccc(OCCCCC2CCNCC2)cc1)C(=O)O` [tirofiban], the “occlusion time of PRP” value in data set [4] (100 ng/mL tirofiban) was “no occlusion”.

In the case of `CC(C)Cc1ccc(C(C)C(=O)O)cc1` (centres unmarked) [ibuprofen], in [2] (PRP from subject on 800 mg ibuprofen), the “aggregation in response to arachidonic acid” value is recorded as “lack of aggregation”. The “occlusion of PRP from ibuprofen patient” value in data set [4] (addition of ADP) is given as “abolished occlusion”; in [4] (subject on 800 mg ibuprofen) it was “demonstrated occlusion”.

The values are drawn from patent publication US12295972B2, “Methods using freeze-dried platelet derivative compositions for restoring hemostasis in a subject” (Cellphire, Inc., priority 2021, dated 2025).
